This note sets out measurements from patent US20200108043A1, “COMPOUNDS AND COMPOSITIONS FOR EXTENDING LIFESPAN OF A SUBJECT” (YALE UNIVERSITY, priority 2017, published 2020).

The test system of the assay is S. cerevisiae. Type of assay: cell-based. How it is done:
To obtain the single-cell level data for the age and generation-durations of replicatively aging mother cells, data reported in Liu, P., et al., Cell Rep. 634-644 (2015) was re-analyzed. The data was collected in the same media condition (CSM 2% glucose) as reported elsewhere herein. Cells were grown for ˜24 hours in CSM 2% glucose prior to loading to the microfluidic device. Once cells were loaded, media was swapped to provide CSM 2% glucose control media (untreated), media containing DMSO as a vehicle control (American Bio AB00435), media containing 10 μM terreic acid (Sigma SML0480), media containing 10 μM mycophenolic acid (Sigma M5255), or media containing another compound at the indicated concentration. An automated microscope was used to track […], and replicative lifespan was later determined by counting the number of daughters produced before death. In the case of compound validation, only newborn cells were included in the lifespan experiment. To compare the replicative lifespan of labeled and unlabeled cells, only cells that were present within the traps at the start of the experiment were included. For these experiments, cells were loaded to the microfluidic device at an increased rate of 100 μL/min to increase the number of trapped mother cells. Green fluorescent images were also taken at the start of the experiment to confirm that the cells were visibly labeled.
Differences in lifespan characteristics were assessed through Log-Rank test using MATLAB with a cut-off value of P=0.05. The script for Log-Rank test was downloaded from MATLAB. Differences in proteasome activity were assessed using the unpaired, two-tailed, parametric t-test function of the GraphPad Prism software.
The Longevity Placement Test (LPT) was designed as a mutually exclusive, collectively exhaustive test to determine the relationship of a longevity intervention to a known genetic regulator of lifespan. For a given intervention that extends lifespan, any of three possible relationships may exist relative to a known genetic regulator of lifespan. (1) The intervention may act to extend lifespan independently from the known regulator. (2) The […] may act downstream from the known regulator, converging on a single component of the known regulator's lifespan pathway. (3) The intervention may act upstream from or upon the known regulator, ultimately modulating lifespan through the genetic regulator.
In Step 1 of the LPT, the longevity intervention is applied to a strain in which a genetic regulator of lifespan is deleted. In the event that lifespan extension from the longevity intervention is observed in this background, only possibilities (1) and (2) above remain valid (FIG. 7B). If no lifespan extension is observed, then possibilities (2) and (3) remain valid. Possibility (2) cannot be ruled out in this step, since non-saturating action by the genetic regulator could leave room for lifespan extension by the longevity intervention, while saturating action would preclude it.
In Step 2 of the LPT, an epistatic agent, which prevents lifespan extension from the longevity agent, is applied to a strain in which some upstream member of the genetic regulator's lifespan pathway has been modified to extend lifespan. This step differentiates possibility (2) from the remaining possibility after Step 1. In the event that lifespan extension from the genetic regulator's pathway is suppressed by the epistatic agent, this determines that possibility (2) is correct. In the event that no epistasis is observed, the remaining possibility, (1) or (3), is correct (FIG. 7C).

As for `COc1c(C)c2c(c(O)c1C/C=C(\C)CCC(=O)O)C(=O)OC2` [mycophenolic acid], the “lifespan extension with treatment for only part of the lifespan” value (10 μM MPA only first 24 hours or only after first 24 hours, compared to whole-lifespan treatment) was “reduced lifespan extension compared to whole-lifespan treatment”. The “lifespan extension with pulse treatment” value (10 μM MPA, 6-hour pulse between 24th and 30th hour) is “little to no lifespan extension”. Also, for the setting “10 μM compound, wild-type haploid cells, Replicator device”, the “extension of mean RLS” value is on record as 20%. In addition, under “absence of SIR2, ΔSIR2ΔFOB1 background”, the “lifespan in ΔSIR2ΔFOB1 background (LPT step 1)” value is “able to extend the lifespan”. The “lifespan in ΔHXK2 strain (LPT step 1)” value (long-lived ΔHXK2 strain) is listed as “further extended lifespan”. For the same molecule, where the note is “long-lived ΔTOR1 strain”, the “lifespan in ΔTOR1 strain (LPT step 1)” value was “further extended lifespan”. Also, the “replicative lifespan (RLS) with and without supplemental guanine” value (wild-type haploid yeast BY4741, MPA without supplemental guanine vs control and guanine supplemented) was “extended longevity”. Further, the “RLS in ΔPRE9 strain” value (ΔPRE9 strain) was “extends RLS”. In addition, the “RLS in ΔUBR2 strain (LPT step 1)” value (ΔUBR2 strain) is reported as “moderately, but not significantly, extended RLS”.
